Source: patent US8293280B2, “Method for treatment of HIV infection” (priority 2004, dated 2012)

Tested on: SIVmac239
Type: in vivo, rhesus macaques (Macaca mulatta)

## C[C@H](Cn1cnc2c(N)ncnc21)OCP(=O)(O)O [PMPA, 9-R-(2-phophorylmethoxypropyl) adenine]
Group 2: no further treatment, Group 3: extract 3.3 NU/kg s.c. daily for 60 days, initiated 2 days prior to termination of PMPA
  viral loads after termination of PMPA therapy: viral loads rebounded soon after the discontinuation of PMPA therapy
By day 28 of PMPA therapy, 30 mg/kg s.c. daily for 28 days, Groups 2 and 3
  plasma viral loads: 100 to 1000 viral copies per mL
